Here are results for 33 compounds from US9102591B2, “Benzamides” (H. Lundbeck A/S, priority 2012, dated 2015).

Molecules are shown by their SMILES.

The term IC50 denotes the concentration that gives 50% inhibition.

Chain of P2X7 receptor (Q99572 whole entry): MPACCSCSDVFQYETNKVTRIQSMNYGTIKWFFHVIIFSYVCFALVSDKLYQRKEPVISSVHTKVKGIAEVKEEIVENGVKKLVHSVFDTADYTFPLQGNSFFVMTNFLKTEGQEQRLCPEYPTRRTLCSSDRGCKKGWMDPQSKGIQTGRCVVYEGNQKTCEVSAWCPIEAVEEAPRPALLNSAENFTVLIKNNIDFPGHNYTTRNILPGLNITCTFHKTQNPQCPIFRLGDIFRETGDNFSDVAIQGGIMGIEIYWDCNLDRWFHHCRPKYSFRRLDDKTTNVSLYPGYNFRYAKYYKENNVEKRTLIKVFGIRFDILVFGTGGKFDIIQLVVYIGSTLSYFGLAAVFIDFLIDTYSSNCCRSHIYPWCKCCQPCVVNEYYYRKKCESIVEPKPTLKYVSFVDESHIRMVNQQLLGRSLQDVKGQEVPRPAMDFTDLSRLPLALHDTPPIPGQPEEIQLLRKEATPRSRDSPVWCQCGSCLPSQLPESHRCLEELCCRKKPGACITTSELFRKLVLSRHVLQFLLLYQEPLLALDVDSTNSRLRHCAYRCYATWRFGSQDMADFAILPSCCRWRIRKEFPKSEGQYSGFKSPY

One assay has as its target P2X7 receptor (Homo sapiens (Human), UniProt Q99572). In words: P2X7 FLIPR assay (BzATP-stimulated calcium fluorescence, antagonist IC50).
Conditions: not given
In kind it is cell-based. In a few lines:
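Cells expressing P2X7 receptor (human, rat or mouse), plated 24 hours earlier in low-serum medium, loaded with Fluo-4 NW dye (30 min 37° C, 30 min room temperature).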
Turning to `O=C(NCC(c1ccc(F)cc1)c1ccc(C(F)(F)F)nc1)c1c(F)cccc1Cl` (single isomer, unassigned; (-)) [(−)2-chloro-6-fluoro-N-[2-(4-fluorophenyl)-2-[6-(trifluorome] [(−)2-chloro-6-fluoro-N-[2-(4-fluorophenyl)-2-[6-(trifluoromethyl)-3-pyridyl]ethyl]benzamide], the IC50 was 8.5 nM. On the same count and under the same terms, then `COc1cccc(C(=O)NCC(CC2CC2)c2ccc(C(F)(F)F)nc2)c1Cl` (single isomer, unassigned; (+)) [(+)2-chloro-N-[3-cyclopropyl-2-[6-(trifluoromethyl)-3-pyridy] [(+)2-chloro-N-[3-cyclopropyl-2-[6-(trifluoromethyl)-3-pyridyl]propyl]-3-methoxy-benzamide], with 12 nM. `CC(C)(O)c1ccc(C(CNC(=O)c2cccc(Cl)c2Cl)CC2CC2)cn1` (single isomer, unassigned; (+)) [(+)2,3-dichloro-N-[3-cyclopropyl-2-[6-(1-hydroxy-1-methyl-et] [(+)2,3-dichloro-N-[3-cyclopropyl-2-[6-(1-hydroxy-1-methyl-ethyl)-3-pyridyl]propyl]benzamide]: the IC50 was 740 nM.

With `O=C(NCC(c1ccc(Cl)cc1)C1CCOCC1)c1cccc(F)c1Cl` (stereo not drawn) [2-chloro-N-[2-(4-chlorophenyl)-2-tetrahydropyran-4-yl-ethyl]-3-fluoro-benzamide], the IC50 is 15 nM. The same measure, in the same setting: to `O=C(NCC(c1cnc(C(F)(F)F)nc1)C1CCOCC1)c1c(F)cccc1Cl` (single isomer, unassigned; (+)) [(+)2-chloro-6-fluoro-N-[2-tetrahydropyran-4-yl-2-[2-(trifluo] [(+)2-chloro-6-fluoro-N-[2-tetrahydropyran-4-yl-2-[2-(trifluoromethyl)pyrimidin-5-yl]ethyl]benzamide] belongs 56 nM; to `Cc1ccccc1C(=O)NCC1(c2ccc(Cl)cc2)CCN(C)CC1` [N-[4-(4-Chloro-phenyl)-1-methyl-piperidin-4-ylmethyl]-2-methyl-benzamide], 60 nM; to `O=C(NCC1(c2ccc(Cl)cc2)CCOCC1)c1cc(F)ccc1F` [N-[4-(4-Chloro-phenyl)-tetrahydro-pyran-4-ylmethyl]-2,5-difluoro-benzamide], 3000 nM. As to `Cc1ccc(C(CNC(=O)c2cccc(C)c2C)CC(C)C)cn1` (stereo not drawn) [2,3-Dimethyl-N-[4-methyl-2-(6-methyl-pyridin-3-yl)-pentyl]-benzamide], the concentration for half-maximal inhibition (IC50) amounted to 4.4 nM. As to `O=C(NCC(CC1(C(F)(F)F)CC1)c1cnc(C(F)(F)F)nc1)c1cccc(F)c1Cl` (single isomer, unassigned; (-)) [(−)2-chloro-3-fluoro-N-[3-[1-(trifluoromethyl)cyclopropyl]-2] [(−)2-chloro-3-fluoro-N-[3-[1-(trifluoromethyl)cyclopropyl]-2-[2-(trifluoromethyl)pyrimidin-5-yl]propyl]benzamide], the IC50 was 29 nM. The same measure, in the same setting: to `COc1ccc(C2(CNC(=O)c3cc(C)ccc3Cl)CCCC2)cc1` [2-Chloro-N-[1-(4-methoxy-phenyl)-cyclopentylmethyl]-5-methyl-benzamide] belongs 190 nM; to `COc1ccc(Cl)c(C(=O)NCC2(c3ccc(F)nc3)CCC(F)(F)CC2)c1` [2-chloro-N-((4,4-difluoro-1-(6-fluoropyridin-3-yl)cyclohexyl)methyl)-5-methoxybenzamide], 0.83 nM; to `O=C(NCC(CC1CC1)c1ccc(C(F)(F)F)nc1)c1cccc(F)c1Cl` (single isomer, unassigned; (+)) [(+)2-chloro-N-[3-cyclopropyl-2-[6-(trifluoromethyl)-3-pyridy] [(+)2-chloro-N-[3-cyclopropyl-2-[6-(trifluoromethyl)-3-pyridyl]propyl]-3-fluoro-benzamide], 11 nM.

Consider `O=C(NCC(c1ccccc1)c1ccnnc1)c1ccc(Cl)cc1Cl` (stereo not drawn) [2,4-dichloro-N-(2-phenyl-2-pyridazin-4-yl-ethyl)benzamide], for which the half-inhibitory concentration (IC50) is 720 nM. The same measure, in the same setting: to `O=C(NCC(CC1CC1)c1ccc(C(F)(F)F)nc1)c1cccc(C(F)(F)F)c1Cl` (single isomer, unassigned; (-)) [(−)2-chloro-N-[3-cyclopropyl-2-[6-(trifluoromethyl)-3-pyridy] [(−)2-chloro-N-[3-cyclopropyl-2-[6-(trifluoromethyl)-3-pyridyl]propyl]-3-(trifluoromethyl)benzamide] belongs 110 nM; to `O=C(NCC(c1ccncc1)c1cnc(C(F)(F)F)nc1)c1cccc(Cl)c1Cl` (stereo not drawn) [2,3-dichloro-N-[2-(4-pyridyl)-2-[2-(trifluoromethyl)pyrimidin-5-yl]ethyl]benzamide], 6.2 nM; to `O=C(NCC(CC1CC1)c1cnc(C(F)(F)F)nc1)c1c(F)cccc1Cl` (single isomer, unassigned; (+)) [(+)2-chloro-N-[3-cyclopropyl-2-[2-(trifluoromethyl)pyrimidin] [(+)2-chloro-N-[3-cyclopropyl-2-[2-(trifluoromethyl)pyrimidin-5-yl]propyl]-6-fluoro-benzamide], 41 nM. Regarding `O=C(NCC(CC1(C(F)(F)F)CC1)c1ccc(C2CC2)nc1)c1ccccc1Cl` (stereo not drawn) [2-chloro-N-[2-(6-cyclopropyl-3-pyridyl)-3-[1-(trifluoromethyl)cyclopropyl]propyl]benzamide], the IC50 stood at 94 nM. Still for that read-out and setting: then `COc1ccc(C2(CNC(=O)c3cccc(Cl)c3Cl)CCCC2)cc1` [2,3-Dichloro-N-[1-(4-methoxy-phenyl)-cyclopentylmethyl]-benzamide], with 260 nM; and `O=C(NCC(CC1CC1)c1cnc(C(F)(F)F)nc1)c1c(Cl)cccc1Cl` (single isomer, unassigned; (+)) [(+)2,6-dichloro-N-[3-cyclopropyl-2-[2-(trifluoromethyl)pyrim] [(+)2,6-dichloro-N-[3-cyclopropyl-2-[2-(trifluoromethyl)pyrimidin-5-yl]propyl]benzamide], with 3.8 nM. Same read-out and setting: to `Cc1ncc(C(CNC(=O)c2cccc(F)c2Cl)C2CCOCC2)cn1` (stereo not drawn) [2-chloro-3-fluoro-N-[2-(2-methylpyrimidin-5-yl)-2-tetrahydropyran-4-yl-ethyl]benzamide] belongs 210 nM; to `O=C(NCC(CC1(C(F)(F)F)CC1)c1ccc(C(F)(F)F)nc1)c1ccccc1Cl` (single isomer, unassigned; (+)) [(+)2-chloro-N-[3-[1-(trifluoromethyl)cyclopropyl]-2-[6-(trif] [(+)2-chloro-N-[3-[1-(trifluoromethyl)cyclopropyl]-2-[6-(trifluoromethyl)-3-pyridyl]propyl]benzamide], 0.09 nM.

With `Cc1cn(C2(CNC(=O)c3cccc(Cl)c3Cl)CCC(F)(F)CC2)cn1` [2,3-dichloro-N-((4,4-difluoro-1-(4-methyl-1H-imidazol-1-yl)cyclohexyl)methyl)benzamide], the concentration for half-maximal inhibition (IC50) was found to be 90 nM. As for `O=C(NCC(CC1CC1)c1ccc(C(F)(F)F)nc1)c1c(F)cccc1F` (single isomer, unassigned; (-)) [(−)N-[3-cyclopropyl-2-[6-(trifluoromethyl)-3-pyridyl]propyl]], the IC50 is 130 nM. On the same count and under the same terms, then `O=C(NCC(CC1(C(F)(F)F)CC1)c1cnc(C(F)(F)F)nc1)c1ccccc1Cl` (single isomer, unassigned; (+)) [(+)2-chloro-N-[3-[1-(trifluoromethyl)cyclopropyl]-2-[2-(trifluoromethyl)pyrimidin-5-yl]propyl]benzamide], with 2.4 nM; and `Cc1ccc(F)cc1C(=O)NCC1(c2ccc(C(F)(F)F)nc2)CCC(F)(F)CC1` [N-((4,4-difluoro-1-(6-(trifluoromethyl)pyridin-3-yl)cyclohexyl)methyl)-5-fluoro-2-methylbenzamide], with 9.1 nM; and `CS(=O)(=O)c1ccc(Cl)c(C(=O)NCC2(c3ccc(F)nc3)CCC(F)(F)CC2)c1` [2-chloro-N-((4,4-difluoro-1-(6-fluoropyridin-3-yl)cyclohexyl)methyl)-5-(methylsulfonyl)benzamide], with 8.7 nM. As for `Cc1c(Br)cccc1C(=O)NCC1(c2ccc(C(F)(F)F)nc2)CCC(F)(F)CC1` [3-bromo-N-((4,4-difluoro-1-(6-(trifluoromethyl)pyridin-3-yl)cyclohexyl)methyl)-2-methylbenzamide], the half-inhibitory concentration (IC50) is 0.71 nM. For the compound `CC(CNC(=O)c1ccccc1Cl)(CC1CC1)c1cnc(C(F)(F)F)nc1` (single isomer, unassigned; (-)) [(−)2-chloro-N-[3-cyclopropyl-2-methyl-2-[2-(trifluoromethyl)] [(−)2-chloro-N-[3-cyclopropyl-2-methyl-2-[2-(trifluoromethyl)pyrimidin-5-yl]propyl]benzamide], the IC50 is 17 nM. Consider `Cc1ncc(C(CNC(=O)c2c(F)cccc2Cl)C2CCC(F)(F)CC2)cn1` (stereo not drawn) [2-chloro-N-[2-(4,4-difluorocyclohexyl)-2-(2-methylpyrimidin-5-yl)ethyl]-6-fluoro-benzamide], for which the half-maximal inhibitory concentration (IC50) came out at 150 nM. The same measure, in the same setting: to `O=C(NCC(CC1CC1)c1cnc(C(F)(F)F)nc1)c1ccccc1Cl` (stereo not drawn) [2-chloro-N-(3-cyclopropyl-2-(2-(trifluoromethyl)pyrimidin-5-] [2-chloro-N-(3-cyclopropyl-2-(2-(trifluoromethyl)pyrimidin-5-yl)propyl)benzamide] belongs 13 nM. Still for that read-out and setting: then `O=C(NCC1(c2ccc(F)nc2)CCC(F)(F)CC1)c1cccc(F)c1Cl` [2-chloro-N-((4,4-difluoro-1-(6-fluoropyridin-3-yl)cyclohexyl)methyl)-3-fluorobenzamide], with 5.3 nM; and `O=C(NCC(CC1CC1)c1ccc(C(F)F)nc1)c1ccccc1Cl` (single isomer, unassigned; (-)) [(−)2-chloro-N-[3-cyclopropyl-2-[6-(difluoromethyl)-3-pyridyl] [(−)2-chloro-N-[3-cyclopropyl-2-[6-(difluoromethyl)-3-pyridyl]propyl]benzamide], with 17 nM.

The same assay, now with this note: listed as (−)2-chloro-N-[3-cyclopropyl-2-(6-fluoro-3-pyridyl)propyl]benzamide.
On to `O=C(NCC(CC1CC1)c1ccc(F)nc1)c1ccccc1Cl` (single isomer, unassigned; (-)) [Example 4x, (−)-2-chloro-N-(3-cyclopropyl-2-(6-fluoropyridin-3-yl)propyl)benzamide], for which the IC50 came to 16 nM.
